Measured values as given in patent US20060189581A1, “Compounds and methods for treating transplant rejection” (AtheroGenics, Inc., priority 1997, published 2006).
“Also recorded” adds a separate entry of the source. Read-outs that look alike come from different tables or passages of the source.

Assays:
[1] = tested on: ACI rat aorta transplanted into Lewis rat (graft arteriosclerosis); experiment: Rat aortic allograft model (graft arteriosclerosis); assay type: in vivo
Method: Compound A was evaluated for graft arteriosclerosis resulting from aortic heterotropic transplantation. This is a model of graft arteriopathy which is the major obstacle to long term success of solid organ transplantation.
Donor descending aortas from ACI rats were heterotypically transplanted into Lewis rat abdomens in end-to-end fashion with minimal ischemic time. 55 rats were assigned to five groups as follows:
(§1) Compound A was administered subcutaneously to recipient animals three days prior to the surgery and once daily for 90 days thereafter. […] Thereafter, the dose was reduced to 30 mg/kg/d for 6 days and then further reduced to 5 mg/kg/d for the remainder of the study.
(§2) On day 90, the allograft segment was removed, fixed in 10% buffered formalin and paraffin embedded. Sections were stained with von Geisson's elastic stain, and intima-to-media area (IM) ratio and percent luminal narrowing (% LN) were assessed by digital morphometry (See FIGS. 1 and 2). Blood was collected at regular intervals throughout the study and plasma evaluated for compound levels (See FIG. 3).

[2] = Plasma compound levels in the rat aortic allograft study; assay type: in vivo; conditions: Lewis, subcutaneous, after 90 days of dosing, read-out: trough plasma levels
Method: as §1, §2

CC(C)(Sc1cc(C(C)(C)C)c(O)c(C(C)(C)C)c1)Sc1cc(C(C)(C)C)c(OCCCC(=O)O)c(C(C)(C)C)c1 [Compound A, 4-[4-[[1-[[3,5-bis(1,1-dimethylethyl)-4-hydroxyphenyl]thio]-1-methylethyl]thio]-2,6-bis(1,1-dimethylethyl)phenoxy]butyric acid]
IM ratio and % LN compared to the vehicle group ([1]; 20 mg and 40/30/5 mg/kg/d doses, day 90): significantly lower | efficacy and gross toxicity ([1]; 20 mg/kg/d subcutaneously): efficacious without grossly discernable toxic side effects | adverse findings (body weight, skin) ([1]; 40 mg/kg/d subcutaneously, until the dose was reduced): failure to gain weight and skin irritation; also recorded: initially lost weight | inhibition of aortic neointimal growth ([1]; 10, 20 and 40/30/5 mg/kg/d subcutaneously, 90 days): dose-dependent inhibition | tolerability of treatment ([1]; 10 and 20 mg/kg/d subcutaneously, animals regained weight post surgery): well tolerated | percent inhibition of the % LN (percent luminal narrowing) ([1]; 40/30/5 mg/kg/d subcutaneously, day 90, compared to vehicle control): 52% | concentration at 90 days ([2]; 10 mg/kg/d subcutaneously): 10 µM | concentration at 90 days ([2]; 20 mg/kg/d subcutaneously): 18 µM | concentration at 90 days ([2]; 40/30/5 mg/kg/d subcutaneously): 28 µM
